Several values for one entry are separate records, joined by “and”; a condition that tells them apart may be missing. Equal entries are not always repeated. Residues, ends and D or L forms follow the SMILES beside them. *: point of attachment. RhodamineB = CCN(CC)c1ccc2c(-c3ccccc3C(=O)*)c3ccc(=[N+](CC)CC)cc-3oc2c1
Experiments:
Assay type in all cases: cell-based
E. coli ATCC 25922 = details: ATCC 25922, 24 h
E. faecalis ATCC 29212 = details: ATCC 29212, 24 h
[1] = tested on: K. pneumoniae ATCC 700603; details: ATCC 700603, 24 h
P. aeruginosa ATCC 27853 = details: ATCC 27853, 24 h
S. aureus ATCC 25923 = details: ATCC 25923, 24 h
[2] = tested on: S. aureus clinical isolate 11719; details: clinical isolate 11719, 24 h
[3] = MTT cytotoxicity assay in HeLa cells
MCF-7 cells = assay: MTT cytotoxicity assay in MCF-7 cells; details: 200 µg/mL, 2 h
Description: An MTT assay was performed in MCF-7 cells with FAM-1 (FAM-RWQWRWQWR) and RhB-1 (RhB-RWQWRWQWR) peptides following a 2 h treatment.

HeLa cells [4] = assay: Fluorescence confocal microscopy, colocalization analysis (ImageJ JaCoP); details: 2 h at IC50, colocalization with SMA antibody
Description: The possible cellular distribution of the peptides was determined by colocalization analysis of the Rhodamine B fluorescent signal, with fluorophores used to stain the nucleus (Hoechst 33342) and cytoplasm components (SMA antibody). ImageJ 1.54f analysis software and the JaCoP plugin were used to analyze signal colocalization.
HeLa cells (>70% confluence) were seeded on sterile round coverslips in 24-well plates with DMEM + 5% FBS and incubated at 37 °C, 5% CO2 for 24 h. After adhesion, the medium was replaced, and cells were treated with fluorescent peptides at their IC50 for 2 h. Then, cells were washed with PBS under constant stirring (3 × 10 min). Cellular fixation was performed using a solution containing 2% paraformaldehyde and 1% sucrose 100 mM in PBS for 30 min, followed by PBS washes (2 × 10 min). Permeabilization was carried out using a solution of 0.1% Triton X-100 and 20 mM glycine in PBS for 10 min, followed by two additional PBS washes. Blocking was performed with 1% BSA and 20 mM glycine in PBS for 10 min. […] For the fluorescence lecture, 5 µL of Fluoromount mounting medium was applied to the slide, and the coverslip containing the cells was inverted onto the medium. Slides were allowed to be dry-protected from light, and cells were visualized using a Leica DMi8 fluorescence confocal microscope. […]

Hemolysis assay = assay: Hemolysis assay
erythrocytes = assay: Hemolysis assay; details: 2 h
HeLa cells [5] = assay: Micrographs of cell morphology after peptide treatment; details: 100 µg/mL, 2 h, 37 °C
Source text: Despite these pronounced morphological alterations, there was no evidence of cell rupture, membrane disintegration, or the presence of cell fragments, indicating the absence of necrotic processes. […] Green arrows indicate normal morphologies, such as cytoplasmic elongations and polygonal shapes. Red arrows indicate morphological changes induced by the peptides, including cell rounding, shrinkage, and loss of cytoplasmic projections. Scale bar: µm. The control corresponds to untreated cells.

For `CCN(CC)c1ccc2c(-c3ccccc3C(=O)N[C@@H](CCCNC(=N)N)C(=O)N[C@@H](Cc3c[nH]c4ccccc34)C(=O)N[C@@H](CCC(N)=O)C(=O)N[C@@H](Cc3c[nH]c4ccccc34)C(=O)N[C@@H](CCCNC(=N)N)C(=O)N[C@@H](Cc3c[nH]c4ccccc34)C(=O)N[C@@H](CCC(N)=O)C(=O)N[C@@H](Cc3c[nH]c4ccccc34)C(=O)N[C@@H](CCCNC(=N)N)C(N)=O)c3ccc(=[N+](CC)CC)cc-3oc2c1` [RhB-1, RhB-RWQWRWQWR] (RhodamineB-RWQWRWQWR-NH2), the Minimal bactericidal concentration (MBC) (E. coli ATCC 25922) was > 105 µM, the Minimal inhibitory concentration (MIC) (E. coli ATCC 25922) was > 105 µM and the Minimal bactericidal concentration (MBC) (E. faecalis ATCC 29212) was 52 µM. The Minimal inhibitory concentration (MIC) (E. faecalis ATCC 29212) was 52 µM, the Minimal bactericidal concentration (MBC) [1] was > 105 µM and the Minimal inhibitory concentration (MIC) [1] was > 105 µM. For the same molecule, the Minimal bactericidal concentration (MBC) (P. aeruginosa ATCC 27853) was > 105 µM, the Minimal inhibitory concentration (MIC) (P. aeruginosa ATCC 27853) was > 105 µM and the “Minimal bactericidal concentration (MBC)” value (S. aureus ATCC 25923) was 52 µM. The “Minimal inhibitory concentration (MIC)” value (S. aureus ATCC 25923) was 26 µM, the “Minimal bactericidal concentration (MBC)” value [2] was 105 µM and the “Minimal inhibitory concentration (MIC)” value [2] was 52 µM. For the same molecule, the IC50 [3] was 117 µg/mL and 61 µM, the cell population remaining (MCF-7 cells) was 8% and the cellular localization (HeLa cells [4]) was “internalized and distributed in the cytoplasm”. It also gave a selectivity ratio (Hemolysis assay) of 0.2, a hemolysis (Hemolysis assay; Percentage of hemolysis) of 19% and a Therapeutic index (erythrocytes) of 0.5. For the same molecule, the morphological changes (HeLa cells [5]) was “appeared smaller, rounded, and contained vacuoles”.

Reference: PMC12383145, “Fluorescent Peptides Internalize HeLa Cells and Kill Multidrug-Resistant Clinical Bacterial Isolates” (Antibiotics, 2025)
